# Test results published in patent US3950350A, “Penam-dimethylsulfoxide complex” (Pfizer Inc., priority 1974, dated 1976).
# Where two headings read alike, the source gives them in different places.
# Assays:
# Streptococcus pyogenes = assay: In vitro minimum inhibitory concentration (MIC), two-fold serial dilution in Brain-Heart Infusion broth; assay type: cell-based; conditions: read-out: MIC vs. Strep. pyogenes
# Experimental: The antibacterial penam compounds, 6, show activity against a wide variety of gram-positive and gram-negative bacteria. […] The broth is inoculated with the bacterial culture, and with the test antibiotic, and then it is incubated overnight. On the next day, the test is read visually. The minimum inhibitory concentration (MIC) is the lowest concentration of antibiotic which prevents turbidity, i.e., which prevents growth of the microorganism. In vitro activities of several of the penam compounds of the invention are presented later in this specification.
# In vitro antibacterial activities for a number of compounds prepared by the procedure of Example 4 are presented below.
# In Table II, the minimum inhibitory concentrations (MIC's) of numerous compounds against a strain of Streptococcus pyogenes, are reported.
# Staphylococcus aureus = assay: In vivo protection of mice against systemic infection by lethal intraperitoneal inoculum of Staphylococcus aureus; design: species or system infected mice; Staphylococcus aureus; conditions: SC, multiple dosing
# Experimental: (§1) These antibacterial penam compounds are also active in vivo. In determining such activity, the test antibiotic is administered to infected mice, using a multiple dosing regimen. The severity of the infection varies from about one to about ten times the dose needed to kill 100% of the mice under the conditions of the test. At the end of the test, the activity of a compound is assessed by counting the number of survivors among the treated animals. Both the subcutaneous (SC) and oral (PO) dosage routes are used. Results are given in Table I for two compounds produced from the novel intermediate of the invention. The ability of the compounds to protect mice against systemic infections caused by a lethal intraperitoneal inoculum of Staphylococcus aureus or of Escherichia coli is presented.
# Escherichia coli = assay: In vivo protection of mice against systemic infection by lethal intraperitoneal inoculum of Escherichia coli; design: species or system infected mice; Escherichia coli; conditions: multiple dosing
# Experimental: as §1
# [1] = two-fold serial dilution, Brain-Heart Infusion broth, overnight incubation
Structure (SMILES),MIC (Streptococcus pyogenes; [1]) [µg/mL],also measured
CC1(C)SC2C(NC(=O)C(N)c3cccc(Cl)c3)C(=O)N2C1c1nn[nH]n1 (racemic) [DL-2-amino-2-(m-chlorophenyl)acetyl],0.78,
CC(C)[C@@H](N)C(=O)NC1C(=O)N2C1SC(C)(C)C2c1nn[nH]n1 (stereo partly drawn) [D-2-amino-3-methylbutyryl],0.2,
CN(C)c1ccc(C(N)C(=O)NC2C(=O)N3C2SC(C)(C)C3c2nn[nH]n2)cc1 (racemic),0.39,
CC1(C)SC2C(NC(=O)COc3ccccc3)C(=O)N2C1c1nn[nH]n1 (stereo not drawn) [2-phenoxyacetyl],< 0.1,
"CC1(C)S[C@@H]2C(NC(=O)[C@H](N)c3ccc(O)cc3)C(=O)N2C1c1nnn[nH]1 (stereo partly drawn) [6-(D-2-amino-2-[p-hydroxyphenyl]acetamido)-2,2-dimethyl-3-(5-tetrazolyl)penam]",< 0.1,"Percentage Protection S. aureus (Staphylococcus aureus; 6 mg./kg.): 50 Percentage; Percentage Protection S. aureus (Staphylococcus aureus; 12 mg./kg.): 50 Percentage; Percentage Protection S. aureus (Staphylococcus aureus; 25 mg./kg.): 70 Percentage; Percentage Protection S. aureus (Staphylococcus aureus; 50 mg./kg.): 80 Percentage; Percentage Protection E. coli (Escherichia coli; 25 mg./kg., SC): 80 Percentage; Percentage Protection E. coli (Escherichia coli; 50 mg./kg., SC): 100 Percentage; Percentage Protection E. coli (Escherichia coli; 200 mg./kg., PO): 100 Percentage"
"CC1(C)S[C@@H]2C(NC(=O)Cc3ccccc3)C(=O)N2C1c1nnn[nH]1 (stereo partly drawn) [2-phenylacetyl, 6-(2-phenylacetamido)-2,2-dimethyl-3-(5-tetrazolyl)penam]",< 0.1,
CC1(C)SC2C(NC(=O)[C@H](N)c3ccccc3)C(=O)N2C1c1nn[nH]n1 (stereo partly drawn) [D-2-amino-2-phenylacetyl],< 0.1,
CC1(C)SC2C(NC(=O)C=CC(N)=O)C(=O)N2C1c1nn[nH]n1 (stereo not drawn) [3-(carbamoyl)acryloyl],< 0.1,
CC1(C)SC2C(NC(=O)[C@H](N)c3cccs3)C(=O)N2C1c1nn[nH]n1 (stereo partly drawn) [D-2-amino-2-(2-thienyl)acetyl],0.1,
CC(=O)NC1C(=O)N2C1SC(C)(C)C2c1nn[nH]n1 (stereo not drawn) [acetyl],< 0.1,
CC1(C)SC2C(NC(=O)[C@H](N)c3cccc(O)c3)C(=O)N2C1c1nn[nH]n1 (stereo partly drawn) [D-2-amino-2-(m-hydroxyphenyl)acetyl],< 0.1,
"CC1(C)S[C@@H]2C(NC(=O)[C@H](N)c3ccsc3)C(=O)N2C1c1nnn[nH]1 (stereo partly drawn) [6-(D-2-amino-2-[3-thienyl]acetamido)-2,2-dimethyl-3-(5-tetrazolyl)penam]",,"Percentage Protection S. aureus (Staphylococcus aureus; 6 mg./kg.): 50 Percentage; Percentage Protection S. aureus (Staphylococcus aureus; 12 mg./kg.): 50 Percentage; Percentage Protection S. aureus (Staphylococcus aureus; 25 mg./kg.): 60 Percentage; Percentage Protection S. aureus (Staphylococcus aureus; 50 mg./kg.): 40 Percentage; Percentage Protection E. coli (Escherichia coli; 25 mg./kg., SC): 20 Percentage; Percentage Protection E. coli (Escherichia coli; 50 mg./kg., SC): 20 Percentage; Percentage Protection E. coli (Escherichia coli; 200 mg./kg., PO): 0 Percentage"
CC1(C)SC2C(NC(=O)C(N=[N+]=[N-])c3ccccc3)C(=O)N2C1c1nn[nH]n1 (stereo not drawn) [2-azido-2-phenylacetyl],< 0.1,
CC1(C)SC2C(NC(=O)[C@H](N)c3ccc(O)c(Cl)c3)C(=O)N2C1c1nn[nH]n1 (stereo partly drawn),0.1,
Cc1onc(-c2ccccc2Cl)c1C(=O)NC1C(=O)N2C1SC(C)(C)C2c1nn[nH]n1 (stereo not drawn),< 0.1,
CC1(C)SC2C(NC(=O)[C@@H](N)c3ccc(O)cc3)C(=O)N2C1c1nn[nH]n1 (stereo partly drawn) [L-2-amino-2-(p-hydroxyphenyl)acetyl],< 0.1,

Structure (SMILES),MIC (Streptococcus pyogenes; [1]) [µg/mL],also measured
CCOC(=O)NC1C(=O)N2C1SC(C)(C)C2c1nn[nH]n1 (stereo not drawn) [ethoxycarbonyl],< 0.1,
"CCN=C(NCC)SCC(=O)NC1C(=O)N2C1SC(C)(C)C2c1nn[nH]n1 (stereo not drawn) [2-(N,N'-diethylamidinothio)acetyl]",< 0.1,
CC1(C)SC2C(NC(=O)[C@H](N)c3cccc(F)c3)C(=O)N2C1c1nn[nH]n1 (stereo partly drawn) [D-2-amino-2-(m-fluorophenyl)acetyl],< 0.1,
CC1(C)SC2C(NC(=O)CSc3ccncc3)C(=O)N2C1c1nn[nH]n1 (stereo not drawn) [2-(4-pyridylthio)acetyl],,MIC (Streptococcus pyogenes): < 0.1 µg/mL
CC1(C)SC2C(NC(=O)CBr)C(=O)N2C1c1nn[nH]n1 (stereo not drawn) [2-bromoacetyl],< 0.1,
CC1(C)SC2C(NC(=O)[C@H](N)Cc3ccccc3)C(=O)N2C1c1nn[nH]n1 (stereo partly drawn) [D-2-amino-3-phenylpropionyl],0.39,
"COc1cccc(OC)c1C(=O)NC1C(=O)N2C1SC(C)(C)C2c1nn[nH]n1 (stereo not drawn) [2,6-dimethoxybenzoyl]",< 0.2,
CC1(C)SC2C(NC(=O)C(N)c3ccc(Cl)cc3)C(=O)N2C1c1nn[nH]n1 (racemic) [DL-2-amino-2-(p-chlorophenyl)acetyl],< 0.1,
"CC1(C)SC2C(NC(=O)C(N)c3ccc(O)c(O)c3)C(=O)N2C1c1nn[nH]n1 (racemic) [DL-2-amino-2-(3,4-dihydroxyphenyl)acetyl]",< 0.1,
CC1(C)SC2C(NC(=O)Oc3ccccc3)C(=O)N2C1c1nn[nH]n1 (stereo not drawn) [phenoxycarbonyl],,MIC (Streptococcus pyogenes): < 0.1 µg/mL
CC1(C)SC2C(NC(=O)CC#N)C(=O)N2C1c1nn[nH]n1 (stereo not drawn) [2-cyanoacetyl],0.1,
CC1(C)SC2C(NC(=O)C(N)c3cc(O)ccc3Br)C(=O)N2C1c1nn[nH]n1 (racemic),< 0.1,
"CC1(C)S[C@@H]2C(N)C(=O)N2C1c1nnn[nH]1 (stereo partly drawn) [hydrogen, 6-Amino-2,2-dimethyl-3-(5-tetrazolyl)penam]",< 0.1,
CC1(C)SC2C(NC(=O)Cn3cnnn3)C(=O)N2C1c1nn[nH]n1 (stereo not drawn) [2-(1-tetrazolyl)acetyl],< 0.39,
CC1(C)SC2C(NC(=O)C3(N)CCCCC3)C(=O)N2C1c1nn[nH]n1 (stereo not drawn) [1-aminocyclohexylcarbonyl],25,
CC1(C)SC2C(NC(=O)OCc3ccccc3)C(=O)N2C1c1nn[nH]n1 (stereo not drawn) [benzyloxycarbonyl],< 0.1,
